Measurements published in publication PMC3845832 (Clinical cancer research : an official journal of the …, 2013).
Like-named read-outs stand apart in the source and are kept apart here.

How the values were obtained:
UGT1A1 or UGT1A4 = details: in vitro; cited from earlier work
UGT1A9 = details: in vitro; cited from earlier work
[1] = Dinaciclib clearance pathways; details: unpublished data
CLL patients [2] = details: cited from earlier work
CLL patients [3] = assay: Tumor lysis syndrome; format: in vivo, human
CLL patients [4] = details: human, in vivo
clinical = details: human, in vivo
refractory CLL patients = details: pharmacokinetically guided dosing, cited from earlier work
CLL patients [5] = assay: Population PK-PD logistic regression model of TLS probability in Cycle 1; details: linear function, day 1 or 8; p<0.01 for significance

CN1CCC(c2c(O)cc(O[C@@H]3O[C@H](C(=O)O)[C@@H](O)[C@H](O)[C@H]3O)c3c(=O)cc(-c4ccccc4Cl)oc23)C(O)C1 (stereo partly drawn) [Flavo-5-G, 5-O-β-glucopyranuronosyl-flavopiridol]
Share of glucuronidation product (UGT1A1 or UGT1A4): minor glucuronidation product

CN1CC[C@H](c2c(O[C@@H]3O[C@H](C(=O)O)[C@@H](O)[C@H](O)[C@H]3O)cc(O)c3c(=O)cc(-c4ccccc4Cl)oc23)[C@H](O)C1 [Flavo-7-G, 7-O-β-glucopyranuronosyl-flavopiridol]
Share of glucuronidation product (UGT1A9): 98.5%

CCc1cnn2c(NCc3ccc[n+]([O-])c3)cc(N3CCCC[C@H]3CCO)nc12 [dinaciclib]
Role of glucuronidation in clearance [1]: clearly important
TLS in treated CLL patients (CLL patients [2]): observed

CN1CC[C@H](c2c(O)cc(O)c3c(=O)cc(-c4ccccc4Cl)oc23)[C@H](O)C1 [flavopiridol]
Patients who had TLS in the first cycle (CLL patients [3]; 111 patients of phase I and II studies): 43%
Number of patients having TLS (CLL patients [3]; Day 1, Cycle 1): 25
Patients in whom TLS (dose-limiting toxicity) was observed (CLL patients [2]; two trials, pharmacokinetically guided dosing regimen): 53 out of 116
Exposure (Cmax or AUC) as predictor of TLS in the model (CLL patients [4]): did not improve the model
Lower CL in females compared to males (clinical; both): 12.3%
Vd (clinical): 75.8 L
clearance (clinical; iv): 568 mL/min
Patients achieving objective responses (refractory CLL patients; phase I trial): 40%
Patients achieving objective responses (refractory CLL patients; phase II trial): 53%

flavopiridol glucuronide [flavo-G]
Exposure (Cmax or AUC) as predictor of TLS in the model (CLL patients [5]): significant decrease in OFV
AUC, median value (clinical): 13600 ng·h/mL
AUC, range (clinical): 3210 to 141000 ng·h/mL
